The structures appear in SMILES notation. pIC50: −log10 of the molar value.

In the assay the target is T1, PI3Kα (p110α/p85α) (Homo sapiens, UniProt P42336).
T1 construct: purchased BPS Bioscience (San Diego, Calif.) or Millipore (Billerica, Mass.)
The experiment in a line: HTRF assay, potency against active PI3Kα. It counts as biochemical. Conditions: HTRF; [ATP]=50 μM, [di-C8-PIP2]=10 μM; 30 min pre-incubation; read-out: PI3Kα Inhibition. On the procedure:
Homogeneous Time Resolved Fluorescence (HTRF) Assay Protocol for Potency Assessment Against the Active Forms of PI3Kα, PI3Kβ, and PI3Kγ
The mechanics of the assay platform are best described by the vendor (Millipore, Billerica, Mass.) on their website at the following URL: www.millipore.com/coa/tech1/74jt4z.
Briefly, Stop solution (Stop A, #33-007 and Stop B, #33-009; 3:1 ratio) and Detection Mix (from DMC, #33-015 with DMA, #33-011 and DMB, #33-013; 18:1:1 ratio) were prepared as recommended by the manufacturer about 2 hrs prior to use. […] Lipid kinase reactions were started with the addition of 5 μL of ATP solution, mixed for 15 sec on a rotary plate shaker and incubated for 30-60 minutes at 25° C. Next, reactions were stopped with a 5 μL addition of Stop solution immediately followed by a 5 μL volume of Detection Mix. […] At the conclusion of each assay, the HTRF ratio from fluorescence emission values for each well was calculated and % Inhibition determined from averaged controls wells (+/−PI3K enzyme). % Inhibition values for each compound were then plotted against inhibitor concentration to estimate IC50 from log [Inhibitor] vs Response, Variable Slope model in GraphPad Prism from GraphPad Software (San Diego, Calif.).

T1 sequence (P42336 whole entry): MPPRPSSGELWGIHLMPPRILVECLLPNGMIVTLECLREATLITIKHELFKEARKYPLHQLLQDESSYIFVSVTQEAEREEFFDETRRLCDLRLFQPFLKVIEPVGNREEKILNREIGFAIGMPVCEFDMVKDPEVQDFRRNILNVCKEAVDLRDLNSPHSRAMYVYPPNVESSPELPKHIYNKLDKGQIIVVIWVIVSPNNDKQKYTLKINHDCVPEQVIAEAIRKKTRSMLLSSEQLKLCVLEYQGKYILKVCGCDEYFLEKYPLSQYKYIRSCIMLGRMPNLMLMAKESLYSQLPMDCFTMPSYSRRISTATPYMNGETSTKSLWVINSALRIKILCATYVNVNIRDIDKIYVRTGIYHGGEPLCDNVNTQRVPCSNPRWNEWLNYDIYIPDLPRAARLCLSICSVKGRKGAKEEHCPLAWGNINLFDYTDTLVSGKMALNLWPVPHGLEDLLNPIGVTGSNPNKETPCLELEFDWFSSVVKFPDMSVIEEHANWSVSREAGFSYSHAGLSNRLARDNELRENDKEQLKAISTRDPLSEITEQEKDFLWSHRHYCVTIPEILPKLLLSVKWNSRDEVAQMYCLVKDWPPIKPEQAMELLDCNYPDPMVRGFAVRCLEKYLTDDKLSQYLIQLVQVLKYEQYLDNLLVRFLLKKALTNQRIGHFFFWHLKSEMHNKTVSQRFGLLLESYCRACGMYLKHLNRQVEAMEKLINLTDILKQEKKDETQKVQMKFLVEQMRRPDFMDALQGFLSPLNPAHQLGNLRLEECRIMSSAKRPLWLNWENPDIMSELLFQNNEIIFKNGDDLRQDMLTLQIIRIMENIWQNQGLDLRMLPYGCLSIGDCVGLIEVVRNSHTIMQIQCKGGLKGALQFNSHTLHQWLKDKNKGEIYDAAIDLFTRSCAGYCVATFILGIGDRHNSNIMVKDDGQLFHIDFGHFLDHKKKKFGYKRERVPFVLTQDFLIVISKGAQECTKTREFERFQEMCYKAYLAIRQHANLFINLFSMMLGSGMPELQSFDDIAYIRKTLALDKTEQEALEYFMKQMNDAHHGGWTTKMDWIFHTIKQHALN
T1 sequence (P27986 whole entry partner): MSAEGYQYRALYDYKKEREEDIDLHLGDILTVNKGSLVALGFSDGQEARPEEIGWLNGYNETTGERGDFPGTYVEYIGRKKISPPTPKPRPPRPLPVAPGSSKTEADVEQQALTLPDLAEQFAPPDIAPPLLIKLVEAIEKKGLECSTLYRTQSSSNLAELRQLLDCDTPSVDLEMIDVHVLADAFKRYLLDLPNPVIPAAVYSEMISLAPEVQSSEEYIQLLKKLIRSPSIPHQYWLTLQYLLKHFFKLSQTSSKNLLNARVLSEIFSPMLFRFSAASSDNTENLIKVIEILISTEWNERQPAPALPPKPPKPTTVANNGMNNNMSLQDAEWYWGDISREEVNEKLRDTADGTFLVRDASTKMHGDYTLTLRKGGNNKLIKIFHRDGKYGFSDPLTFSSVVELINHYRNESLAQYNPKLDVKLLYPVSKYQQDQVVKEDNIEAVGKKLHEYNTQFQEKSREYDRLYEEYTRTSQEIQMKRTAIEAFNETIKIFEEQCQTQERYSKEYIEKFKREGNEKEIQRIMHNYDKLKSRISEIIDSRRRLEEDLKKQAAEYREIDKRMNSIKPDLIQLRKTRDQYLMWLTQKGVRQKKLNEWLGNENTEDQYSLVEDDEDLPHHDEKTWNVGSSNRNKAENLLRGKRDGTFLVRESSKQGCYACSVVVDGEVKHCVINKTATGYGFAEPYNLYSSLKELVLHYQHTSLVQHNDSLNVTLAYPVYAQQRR

As to `C=CC(=O)NCC(=O)N1CCC(O)(c2cc3nc(-c4cccc5[nH]ncc45)nc(N4CCOCC4)c3s2)CC1` [II-a-134, N-(2-(4-(2-(1H-indazol-4-yl)-4-morpholinothieno[3,2-d]pyrimidin-6-yl)-4-hydroxypiperidin-1-yl)-2-oxoethyl)acrylamide], the pIC50 is 6.00 to 7.00.
Then `Cn1ccnc1/C=C/C(=O)CCC(=O)N1CCN(Cc2cc3nc(-c4cccc5[nH]ncc45)nc(N4CCOCC4)c3s2)CC1` [II-a-129, (E)-1-(4-((2-(1H-indazol-4-yl)-4-morpholinothieno[3,2-d]pyrimidin-6-yl)methyl)piperazin-1-yl)-6-(1-methyl-1H-imidazol-2-yl)hex-5-ene-1,4-dione], with 6.00 to 7.00; and `CC(C)=CC(=O)C(=O)N1CCN(c2cc(C)c(-c3cc(-c4cnc(N)nc4)nc(N4CCOCC4)c3)cn2)CC1` [XII-26, 1-(4-(2′-(2-aminopyrimidin-5-yl)-4-methyl-6′-morpholino-3,4′-bipyridin-6-yl)piperazin-1-yl)-4-methylpent-3-ene-1,2-dione], with 7.00 to 8.00.
In the case of `C/C=C/C(=O)CCC(=O)NCCOc1ccc2c(c1OC)N=C(NC(=O)c1cccnc1)N1CCN=C21` [IX-2, (E)-N-(7-methoxy-8-(2-(4-oxohept-5-enamido)ethoxy)-2,3-dihydroimidazo[1,2-c]quinazolin-5-yl)nicotinamide] it was 7.00 to 8.00.
Then `C=CC(=O)NCCC(=O)N1CC=C(c2cc3nc(-c4cccc5[nH]ncc45)nc(N4CCOCC4)c3s2)CC1` [II-a-95, N-(3-(4-(2-(1H-indazol-4-yl)-4-morpholinothieno[3,2-d]pyrimidin-6-yl)-5,6-dihydropyridin-1(2H)-yl)-3-oxopropyl)acrylamide], with less than 6.00; and `CCCC(=O)CCC(=O)N1CCC(n2nc(-c3ccc(OC)c(OC)c3)c3c(N)ncnc32)CC1` [XI^R-1, 1-(4-(4-amino-3-(3,4-dimethoxyphenyl)-1H-pyrazolo[3,4-d]pyrimidin-1-yl)piperidin-1-yl)heptane-1,4-dione], with less than 6.00; and `O=C(/C=C/c1ccccc1)CCC(=O)N1CC=C(c2cc3nc(-c4cccc5[nH]ncc45)nc(N4CCOCC4)c3s2)CC1` [II-a-135, (E)-1-(4-(2-(1H-indazol-4-yl)-4-morpholinothieno[3,2-d]pyrimidin-6-yl)-5,6-dihydropyridin-1(2H)-yl)-6-phenylhex-5-ene-1,4-dione], with 6.00 to 7.00.
In the case of `C=CC(=O)Nc1ccc(C(=O)N2CC=C(c3cc4nc(-c5cccc(O)c5)nc(N5CCOCC5)c4s3)CC2)cc1OCCCN` [II-a-155, N-(2-(3-aminopropoxy)-4-(4-(2-(3-hydroxyphenyl)-4-morpholinothieno[3,2-d]pyrimidin-6-yl)-1,2,3,6-tetrahydropyridine-1-carbonyl)phenyl)acrylamide], the pIC50 was 7.00 to 8.00.
Then `C/C=C/C(=O)CCC(=O)N1CCC(O)(C#Cc2cc3nc(-c4cccc(O)c4)nc(N4CCOCC4)c3s2)CC1` [II-a-104, (E)-1-(4-hydroxy-4-((2-(3-hydroxyphenyl)-4-morpholinothieno[3,2-d]pyrimidin-6-yl)ethynyl)piperidin-1-yl)hept-5-ene-1,4-dione], with greater than 8.00; and `CCC(=O)N(C)CC(=O)N1CCC(n2nc(-c3ccc(OC)c(OC)c3)c3c(N)ncnc32)CC1` [XI^R-2, N-(2-(4-(4-amino-3-(3,4-dimethoxyphenyl)-1H-pyrazolo[3,4-d]pyrimidin-1-yl)piperidin-1-yl)-2-oxoethyl)-N-methylpropionamide], with less than 6.00.
In the case of `C=CC(=O)N1CCC(N2CCN(C(=O)c3cc4nc(-c5cccc(O)c5)nc(N5CCOCC5)c4s3)CC2)CC1` [II-a-120, 1-(4-(4-(2-(3-hydroxyphenyl)-4-morpholinothieno[3,2-d]pyrimidine-6-carbonyl)piperazin-1-yl)piperidin-1-yl)prop-2-en-1-one] it was 6.00 to 7.00.
Then `C=CC(=O)N(C)CC(=O)N1CCC(n2nc(-c3ccc(OC)c(OC)c3)c3c(N)ncnc32)CC1` [XI-2, N-(2-(4-(4-amino-3-(3,4-dimethoxyphenyl)-1H-pyrazolo[3,4-d]pyrimidin-1-yl)piperidin-1-yl)-2-oxoethyl)-N-methylacrylamide], with less than 6.00.
